Values quoted from earlier work in patent US20150133416A1, “Pharmaceutical Composition Comprising Abiraterone Acetate” (Jagotec AG, priority 2012, published 2015).
Like-named read-outs stand apart in the source and are kept apart here.

Legend:
[1] = 20 mg delayed release capsules administered with apple sauce
[2] = not given; remark: listed apart in the source

SMILES	reduction in Cmax [1] [%]	aqueous solubility	log P	AUC elevation compared with the fasted state ([2]; after a high fat meal) [fold]	Cmax elevation compared with the fasted state ([2]; after a high fat meal) [fold]	AUC elevation compared with the fasted state ([2]; after a low fat meal) [fold]	Cmax elevation compared with the fasted state ([2]; after a low fat meal) [fold]
COc1ccc2[nH]c([S+]([O-])Cc3ncc(C)c(OC)c3C)nc2c1 (stereo not shown) [omeprazole]	25	–	–	–	–	–	–
C[C@]12CC[C@H](O)CC1=CC[C@@H]1[C@@H]2CC[C@]2(C)C(c3cccnc3)=CC[C@@H]12 [abiraterone]	–	poor	very high	10	17	5	7
